Read-outs that look alike come from different tables or passages of the source.
Tests used:
[1] = tested on: 2.2 kb human GFAP promoter; assay: hGFAP promoter luciferase activity assay in 172.9 cells (primary astrocytes from dual luciferase transgenic mice); format: cell-based; conditions: for effect on GFAP promoter activity (luciferase expression driven by the hGFAP promoter): 172.9 cells, 3 days of treatment; for effect on GFAP promoter activity (luciferase expression driven by the hGFAP promoter) / reductions in luciferase activity: 0-20 μM; for reductions in luciferase activity: quaternary screen, 10 days of exposure; for % GFAP reductions, luciferace expression from hGFAP promoter: tertiary screen, 48 hr exposure, at the MTDcc; for suppression in the promoter assay: secondary screen, 10 μM, 48 hours
Description: Cell-based assays were performed as four different screens using enriched cortical primary astrocyte cultures developed from transgenic mice expressing both firefly and Renilla luciferase reporter genes were generated. Briefly, the'firefly luciferase was placed under the control of a 2.2 kb human GFAP promoter to monitor GFAP transcription, and the Renilla luciferase was placed under the control of a 0.5 kb human GAPDH (glyceraldehyde 3-phosphate dehydrogenase) promoter to monitor transcription of a housekeeping gene for signal normalization. See section B, below for more detail regarding the development of transgenic mouse strains. Cells used in the following examples (e.g., the cortical primary astrocyte cells termed “172.9 cells,” described below) were developed from the transgenic mice described in section B.
Briefly, the cortices from individual pups were freed of meninges and placed into DMEM (Gibco) without serum, mechanically disassociated into single cells, suspended in medium containing DMEM supplemented with 10% fetal bovine serum (FBS; Hyclone), 100 U/ml penicillin, 100 μg/ml streptomycin (Gibco), seeded into T25 flasks (one brain per flask), and maintained in a humidified 5% CO2 atmosphere at 37° C. […] Medium was changed every 3 days. At 14-16 days in vitro (DIV), the flasks were shaken overnight at 200 rpm to remove oligodendrocytes and microglia. […] The cells were then suspended in DMEM with 10% FBS and plated (“passage 2”) on either 35 mm dishes, […], or 96-well plates (Corning) as needed. Cells were grown for varying days in vitro (DIV) at passage 2 and then used for various experiments. Tissue culture dishes and plates were pre-coated with 100 μg/ml poly-L-lysine for 1 h in a humidified 5% CO2 atmosphere at 37° C., and then allowed to air dry. […] Cell density was measured with the Vi-CELL cell counter (Beckman Coulter) or hemocytometer by the trypan-blue exclusion method. For simplicity, cells are referred to as “172.9 cells.”
Briefly, 172.9 cells were plated on poly-L coated white 96-well plates at a density of 5000 cells per well, in 100 μl DMEM with 10% FBS. At twenty-four hours, cells were exposed to the different compounds at a final concentration of 10 μM (diluted from a 50 mM stock) prepared in new medium (DMEM with 10% FBS). […] After exposure to compounds, luciferase activity in the primary and secondary screenings was determined by adding 30 μl of Bright-Glo™ reagent (Promega) to the 100 μl of media and cells of each well in the white 96-well plates with the Biomek® FX liquid handler (Beckman Coulter). After incubation for 1 minute at room temperature, signals were measured with the Safire 2 plate reader using Magellan™ software (Tecan). Other specific methods and equipment are known in the art and can be used to measure luciferase expression levels. This assay method is termed the “hGFAP promoter luciferase activity assay.” A reduction in luciferase expression as determined by this assay is termed “hGFAP promoter luciferase reduction.” For some assays that were aimed at confirming results of the initial screens, the same amount of Bright-Glo™ reagent was applied to each well in 96-well plates and signals were detected with the GloRunner™ Microplate Luminometer (Turner Biosystems) using the Dual-Glo® luciferase assay according to the manufacturer's recommendations (E1910, Promega).
In the secondary screen, cells were plated in a 96-well plate as described above for the primary screen.
Some compounds were unavailable outside of the library collections, and could not be further tested.
Each compound and concentration was analyzed in quadruplicate wells.
(§1) Compounds were tested at eight different concentrations ranging from 0-20 μM. In addition, GFAP protein levels were measured using a sandwich ELISA, which has greater sensitivity and is more accurate than the cell-based ELISA used in the primary screens.

[2] = tested on: mGFAP protein; assay: GFAP protein levels by ELISA in 172.9 cells treated with betulinic acid derivatives; format: cell-based, mouse; conditions: 7 days of treatment, 0-20 μM
Description: FIG. 9A-D are graphs showing the effects of betulinic acid and betulinic acid derivatives on mGFAP protein levels in 172.9 cells after 7 days of treatment. In the graphs, ester and amide forms of various compounds are paired for comparison.
172.9 cells were used to test the effects of betulinic acid and betulinic acid derivatives on GFAP promoter activity and GFAP protein levels. Experiments were performed as previously described. Each of eight compounds (D-altroside (ester); D-altroside (amide); D-xyloside (ester); D-xyloside (amide); aglycon (ester); aglycon (amide); betulinic acid; 3-amino betulinic acid) was tested at a concentration of 0 μM, 0.1 μM, 0.5 μM, 1 μM, 5 μM, 10 μM, 15 μM, and 20 μM. […] Toxicity of the compounds was also evaluated.

[3] = tested on: mGFAP protein; assay: cell-based GFAP protein level assay (cell-based ELISA) in 172.9 cells; set-up: species or system mouse; conditions: for % GFAP reductions, mGFAP protein via ELISA: tertiary screen, 48 hr exposure, at the MTDcc; for suppression in the protein assay: secondary screen, 10 μM, 48 hours
[4] = tested on: 172.9 cells; assay: cell viability (CellTiter-Glo) / MTDcc in 172.9 cells
Description: Criterion for acceptable viability was >70% survival.
Cell viability was determined as follows. After exposure to each compound (duplicate wells per compound), 50 μl of CellTitier-Glo Luminescent Cell Viability Assay reagent (G7571, Promega) was added to the 100 μl of media present in each well, and the luminescent signal (reflecting intracellular ATP level) was detected with either a Victor 3-V plate reader (Perkin Elmer) or GloRunner Microplate Luminometer (Turner Biosystems). Cell viability was expressed as a percent of non-treated control cells.
A dose-response curve was created for each compound (0.1, 0.5, 1, 5, 10, 15, 20 μM) using 48 hr exposures. The MTDcc (“maximum tolerated dose—cell culture”) indicates the highest concentration that retained at least 70% cell viability. Each compound and concentration was analyzed in quadruplicate wells. EGCDG: epigallocatechin 3,5-digallate; NPPB: 5-nitro-2-phenylproplyaminobenzoic acid. As used herein, MTDcc refers to the MTD as determined by this assay under the above conditions.

[5] = tested on: GFAP protein; assay: sandwich ELISA for GFAP protein in 172.9 cells, quaternary screen; format: cell-based, mouse; conditions: 10 days of exposure, 0-20 μM
Description: as §1
The extracts were harvested from each well and the total GFAP content of each well was measured by a sandwich ELISA as described below. Briefly, separate microtiter plates were coated with SMI-26 anti-GFAP mouse monoclonal antibody cocktail (1:1000, Covance, diluted in PBS) overnight at 4° C., rinsed 3 times in PBS, and then blocked with Blotto (5% nonfat milk/PBS) for 2 h at RT. Samples from the astrocyte cell lysate (20 μl per well) were loaded onto the plates and brought up to 100 μl with 0.5% Triton X-100/PBS (a buffer used for subsequent antibody incubations and rinses), and incubated with a rabbit polyclonal anti-GFAP antibody (1:5000, DAKO) overnight at 4° C. The plates were rinsed three times and then incubated with HRP-conjugated goat anti-rabbit IgG (1:30,000, Sigma) for 2 h at RT. After three final rinses, peroxidase activity was detected using the Super Signal Femto maximum Sensitivity Substrate (Pierce) with a GloRunner microplate luminometer (Turner Biosystems). The GFAP content in the samples was determined from a standard curve generated using serial dilutions of purified GFAP (Research Diagnostics).

[6] = tertiary screen, 48 hr exposure, 0.1-20 μM, highest concentration that retained at least 70% cell viability

Row | SMILES | effect on GFAP promoter activity (luciferase expression driven by the hGFAP promoter) [1] | effect on GFAP protein levels [2] | % GFAP reductions, luciferace expression from hGFAP promoter [1] [%] | % GFAP reductions, mGFAP protein via ELISA [3] [%] | MTDcc ([4]; mouse, 48 h) [µM] | also measured
1 | C=C(C)[C@@H]1CC[C@]2(C(=O)O)CC[C@]3(C)[C@H](CCC4[C@@]5(C)CC[C@H](OC(=O)CN(OC)[C@@H]6OC(CO)[C@@H](O)C(O)C6O)C(C)(C)C5CC[C@]43C)C12 (stereo partly drawn) [D-altroside (ester), (3S)—O—(N-Methoxy-N-β-D-altrosylglycyl)betulinic acid] | more dramatic decrease in GFAP promoter activity than the amide form | reduced GFAP protein levels more than the amide form |  |  |  | 
2 | C=C(C)[C@@H]1CC[C@]2(C(=O)O)CC[C@]3(C)[C@H](CCC4[C@@]5(C)CC[C@H](NC(=O)CNOC)C(C)(C)C5CC[C@]43C)C12 (stereo partly drawn) [aglycon (amide), (3S)—N—(N′-Methoxyglycyl)aminobetulinic acid] |  | reduced GFAP protein levels more than the ester form |  |  |  | 
3 | C=C(C)[C@@H]1CC[C@]2(C(=O)O)CC[C@]3(C)[C@H](CCC4[C@@]5(C)CC[C@H](OC(=O)CNOC)C(C)(C)C5CC[C@]43C)C12 (stereo partly drawn) [aglycon (ester), (3S)—O—(N-Methoxyglycyl)betulinic acid] | decreased luciferase expression | minimal effect |  |  |  | 
4 | CN(C)CCC=C1c2ccccc2CCc2ccccc21 [amitriptyline] |  |  | 63 | 12.2 | >20 | reductions in luciferase activity [1]: consistent reductions; cell viability [4]: acceptable cell viability; reductions in GFAP protein levels [5]: consistent reductions
5 | O=C(Oc1cc(O)cc2c1C[C@@H](OC(=O)c1cc(O)c(O)c(O)c1)[C@@H](c1cc(O)c(O)c(O)c1)O2)c1cc(O)c(O)c(O)c1 [EGCDG, epigallocatechin 3,5-digallate] |  |  | 57 | 4.5 |  | reductions in luciferase activity [1]: consistent reductions; suppression in the promoter assay [1]: significant suppression; suppression in the protein assay [3]: significant suppression; MTDcc [4]: 17.5 µM; cell viability [4]: acceptable cell viability; reductions in GFAP protein levels [5]: consistent reductions
6 | C=C(C)[C@@H]1CC[C@]2(C(=O)O)CC[C@]3(C)[C@H](CCC4[C@@]5(C)CC[C@H](N)C(C)(C)C5CC[C@]43C)C12 (stereo partly drawn) [3-amino betulinic acid, (3S)-Aminobetulinic acid] | decrease in GFAP promoter activity | reduced GFAP protein levels more than the ester form |  |  |  | 
7 | CC(=O)OCC(=O)[C@@]12OC(C)(C)O[C@@H]1C[C@H]1[C@@H]3C[C@H](F)C4=CC(=O)C=C[C@]4(C)[C@@]3(F)[C@@H](O)C[C@@]12C [fluccinonide] |  |  | 28 | −2.2 |  | MTDcc [4, 6]: >20 µM
8 | O=c1c(-c2cc(O)c(O)c(O)c2)coc2cc(O)c(O)c(O)c12 [irigenol] |  |  | 28 | 1.8 | >20 | suppression in the promoter assay [1]: significant suppression; suppression in the protein assay [3]: significant suppression
9 | C=C(C)[C@@H]1CC[C@]2(C(=O)O)CC[C@]3(C)[C@H](CCC4[C@@]5(C)CC[C@H](OC(=O)CN(OC)[C@@H]6OC[C@@H](O)C(O)C6O)C(C)(C)C5CC[C@]43C)C12 (stereo partly drawn) [D-xyloside (ester), (3S)—O—(N-Methoxy-N-β-D-xylosylglycyl)betulinic acid] | more dramatic decrease in GFAP promoter activity than the amide form | reduced GFAP protein levels more than the amide form |  |  |  | 
10 | NC[C@H]1O[C@H](O[C@H]2[C@H](O)[C@@H](O)[C@H](N)C[C@@H]2N)[C@H](N)[C@@H](O)[C@@H]1O [neamine] |  |  | 5 | −0.8 |  | MTDcc [4, 6]: >20 µM
11 | CC(=O)Nc1ccc(OC(=O)c2ccccc2O)cc1 [4-acetamidophenyl salicylate] |  |  | 17 | 8.6 | >20 | 
12 | CCCCCCCCCCCC1=C(O)C(=O)C=C(O)C1=O [embelin] |  |  | 37 | 10.8 | 7.5 | 
13 | CCOC(=O)NC1=C(N2CC2)C(=O)C(NC(=O)OCC)=C(N2CC2)C1=O [diaziquone] |  |  | 86 | 9.5 | >20 | suppression in the promoter assay [1]: significant suppression; suppression in the protein assay [3]: significant suppression

From patent US8372808B2, “Suppression of glial fibrillary acidic protein” (Wisconsin Alumni Research Foundation, priority 2008, dated 2013)
